# Data from patent US12233083B2, “Methods for the use of 5′-adenosine diphosphate ribose (ADPR)” (Invirsa, Inc., priority 2018, dated 2025).
# “And” between values parts separate entries of the source, which are not always exact repeats. Equal entries are not always repeated. “Also recorded” adds a separate entry of the source. Where two headings read alike, the source gives them in different places.
# Tests used:
# HRSV [1] = assay: Reduction of HRSV cellular infection in A549 cells (RSV with GFP reporter, infected cells counted); type: cell-based, human respiratory syncytial virus
# HRSV [2] = assay: Inhibition of HRSV replication in A549 cells (RSV with Renilla luciferase reporter); type: cell-based, human respiratory syncytial virus
# RSV/A2 = assay: Cotton rat RSV lung infection: lung viral titer; type: in vivo; settings: 0.5% soln, 50 μL IN BID, day 5, vs PBS
# Experimental: (§1) Methods: In view of the reduction in hRSV cellular infection in A549 and human airway epithelial cells, an in vivo experiment in the Cotton Rat was carried out using RSVA2 infection. In this study, adult male cotton rats (6-8 weeks of age) were divided into groups of 4 animals each. Animals were pre-bled for serum collection and ear tagged for identification. All animals were infected via intranasal instillation with 0.1 mL of RSV/A2 at 10^5 plaque-forming units (pfu) per animal.
# (§2) At each treatment the animals received 50 μL. On day 5, the animals were sacrificed for viral lung titers and cytokine analysis. Interferon gamma (IFNγ) and transforming growth factor beta (TGFβ) gene expression were analyzed by PCR. The cytokine mRNA level was normalized relative to beta actin.
# Interferon gamma (IFNγ) = assay: Cotton rat RSV lung infection: lung IFNγ gene expression by PCR; type: in vivo; settings: 0.5% soln, 50 μL IN BID, day 5, vs PBS
# Experimental: as §1, §2
# HRSV [3] = assay: Reduction of HRSV infection in primary human airway epithelial (HAE) cultures (luciferase); type: cell-based, human respiratory syncytial virus; settings: 0.9 and 2.7 mg/ml, days 1 and 3 (24 and 72 hours) post inoculation
# HSV-1, strain MacIntyre = assay: Plaque inhibition against HSV-1 strain MacIntyre in A549 cells; type: cell-based, herpes simplex virus type 1; settings: for Percent plaque area (ImageJ): A549 cells, duplicate wells
# Experimental: Background: […] Again, acyclovir was included as a positive control. […] Acyclovir was tested at 0.002 and 0.05 mM. A control, with no treatment was also evaluated. […] After virus adsorption, media was removed and monolayers overlaid with semisolid agarose media containing each drug dilution. Monolayers were fixed and stained with crystal violet to visualize virus plaques. Pictures of the test plates were submitted to client for image analysis. Percent plaque area was calculated using ImageJ, version 1.52i.
# [4] = system: transforming growth factor beta (TGFβ); assay: Cotton rat RSV lung infection: lung TGFβ gene expression by PCR; type: in vivo; settings: 0.5% soln, 50 μL IN BID, day 5, vs PBS
# Experimental: as §1, §2
# Sirt6 = settings: 60 μM
# Experimental: Sirt6 expression using western blots was evaluated in human corneal epithelial cells. Cell Culture: Human corneal epithelial cells (ATCC) were grown to just below confluency (80-90%) at 37° C., 5% CO2. They were washed twice with sterile phosphate buffered saline (PBS) and serum starved for 2 hours at 37° C. […] They were incubated for either 15, 30, 60 or 120 minutes with treatment. After each time point, treatment was aspirated and cells were washed twice with ice cold PBS. Cells were lysed in ice-cold cell lysis buffer and rotated end-over-end at 4° C. for 30 minutes. They were then centrifuged at 14,000g for 30 minutes at 4° C. […] Samples were stored frozen at -20° C. until performing the Western Blot. […] Proteins were electrophoresed at [MUT] for approximately 50 minutes then transferred to nitrocellulose. After blocking the blot for 1 hour at room temperature in 3% BSA in a standard mixture of tris-buffered saline and Polysorbate 20 (TBST), primary antibody (anti-Sirtuin 6) was added in blocking buffer and incubated overnight at 4° C. The blot was washed 3 times with TBST and HRP-linked secondary antibody added at 1:2000 for 40 minutes at room temperature. The blot was again washed 3 times with TBST and developed with ECL reagents for 1 minute. Images were obtained with ChemiDoclt Imager (UVP, Upland CA) with exposures ranging from 30 seconds to 5 minutes. […]
# [5] = molecular target: purified recombinant GST-SIRT6 protein (Homo sapiens, UniProt Q8N6T7); settings: first study
# Chain of purified recombinant GST-SIRT6 protein (Q8N6T7 whole entry): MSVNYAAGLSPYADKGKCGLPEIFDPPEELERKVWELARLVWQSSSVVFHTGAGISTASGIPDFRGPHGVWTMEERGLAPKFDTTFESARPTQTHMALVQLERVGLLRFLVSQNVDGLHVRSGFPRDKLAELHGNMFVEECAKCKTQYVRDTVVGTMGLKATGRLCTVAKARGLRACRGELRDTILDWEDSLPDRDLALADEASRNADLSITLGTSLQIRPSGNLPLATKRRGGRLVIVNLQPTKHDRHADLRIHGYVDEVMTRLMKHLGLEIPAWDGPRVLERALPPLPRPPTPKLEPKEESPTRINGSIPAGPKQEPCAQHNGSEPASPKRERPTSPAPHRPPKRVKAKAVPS
# Experimental: This first set of studies was performed using a Western blot method (Rahnasto-Rilla, 2016, Methods Mol. Biol., 1436:259-269) for the in vitro evaluation of Sirt6 deacetylation activity. […] Acetylation level was detected with anti-H3K9Ac antibody and normalized to total H3 histone (FIG. 5 (b)).
# Vero cells = settings: African green monkey
smiles,measurement,setting,value
"Nc1ncnc2c1ncn2[C@@H]1O[C@H](COP(=O)([O-])OP(=O)([O-])OC[C@H]2OC(O)[C@H](O)[C@@H]2O)[C@@H](O)[C@H]1O.[Li+].[Li+] (some centres unmarked) [Li2-ADPR, dilithium ADPR]",reduction of percentage of A549 cells infected with HRSV,HRSV [1]; 0.1 mg/ml,~50%
same,reduction of percentage of A549 cells infected with HRSV,HRSV [1]; 2.7 mg/ml,~85%
same,percentage of A549 cells infected with increasing concentrations,HRSV [1]; days 1 and 2 after inoculation,significant reduction
same,"inhibition of RSV replication (luminescence), difference",HRSV [2]; 2.7 mg/ml,five
same,HRSV replication (luminescence) with increasing concentrations,HRSV [2]; days 1 and 2 after infection,significant dose-dependent inhibition
same,lung RSV titers,RSV/A2,reduced
same,lung IFNγ mRNA (normalized to beta actin),Interferon gamma (IFNγ),increase
same,RSV replication / percentage of cells infected in HAE cultures (luciferase activity),HRSV [3],significantly inhibiting; also recorded: significant reduction
same,Percent plaque area (ImageJ),"HSV-1, strain MacIntyre; 0.1 mM",8.1% and 8.3%
same,Percent plaque area (ImageJ),"HSV-1, strain MacIntyre; 0.4 mM",14.3% and 7.3%
same,Percent plaque area (ImageJ),"HSV-1, strain MacIntyre; 1.2 mM",4.8% and 3.8%
same,HSV-1 plaques observed in wells,"HSV-1, strain MacIntyre; Li2-ADPR 0.1 mM",plaques similar in number and size as the untreated wells
same,HSV-1 plaques observed in wells,"HSV-1, strain MacIntyre; Li2-ADPR increased from 0.4 to 1.2 mM",the plaque number decreased and the plaque size decreased
same,lung TGFβ mRNA (normalized to beta actin),[4],significant decrease
same,Sirt6 protein concentration relative to baseline (No Treat lane),Sirt6; 30 minutes,155%
same,Sirt6 protein concentration relative to baseline (No Treat lane),Sirt6; two hours,returned to baseline
same,Sirt6 deacetylation activity (inverse of H3K9Ac / total H3),[5]; between 0.01 and 1 μM,increasing activation
same,Sirt6 deacetylation activity (inverse of H3K9Ac / total H3),[5]; concentrations of 10 μM and above,variable activity
Nc1nc2c(ncn2COCCO)c(=O)[nH]1 [Acyclovir],HSV-1 plaques observed in wells,"HSV-1, strain MacIntyre; Acyclovir 0.002 mM","more smaller plaques, but not as many nor as large as the untreated wells"
same,HSV-1 plaques observed in wells,"HSV-1, strain MacIntyre; acyclovir 0.05 mM",few small breakthrough plaques
same,Toxicity Grade on Vero Cells,Vero cells; 0.1 μM,0
same,Toxicity Grade on Vero Cells,Vero cells; 2 μM,0
same,Toxicity Grade on Vero Cells,Vero cells; 50 μM,0
